This passage reports remaining activity results from article PMC6757289, “Design and Characterization of SGK3-PROTAC1, an Isoform Specific SGK3 Kinase PROTAC Degrader” (ACS Chemical Biology, 2019).

Like-named read-outs stand apart in the source and are kept apart here.

By remaining activity is commonly meant the signal under treatment as a percentage of the control signal.

Common to all, as to experiment: kinase profiling panel
What all share (assay type): biochemical

One assay addresses CDK9-Cyclin T1 (Homo sapiens, UniProt P50750). To be noted: read-out: % Activity Remaining. An excerpt: (§1) Protein kinase profiling against a Dundee panel of 140 protein kinases was undertaken at the International Centre for Protein Kinase Profiling. The result for each kinase was presented as a mean kinase activity of the reaction taken in triplicate relative to a control sample treated with DMSO. Assay conditions and abbreviations are available at http://www.kinase-screen.mrc.ac.uk.

The target in a further assay is CHK2 (Homo sapiens, UniProt O96017). To be noted: read-out: % Activity Remaining.
Sequence of CHK2 (O96017 whole entry): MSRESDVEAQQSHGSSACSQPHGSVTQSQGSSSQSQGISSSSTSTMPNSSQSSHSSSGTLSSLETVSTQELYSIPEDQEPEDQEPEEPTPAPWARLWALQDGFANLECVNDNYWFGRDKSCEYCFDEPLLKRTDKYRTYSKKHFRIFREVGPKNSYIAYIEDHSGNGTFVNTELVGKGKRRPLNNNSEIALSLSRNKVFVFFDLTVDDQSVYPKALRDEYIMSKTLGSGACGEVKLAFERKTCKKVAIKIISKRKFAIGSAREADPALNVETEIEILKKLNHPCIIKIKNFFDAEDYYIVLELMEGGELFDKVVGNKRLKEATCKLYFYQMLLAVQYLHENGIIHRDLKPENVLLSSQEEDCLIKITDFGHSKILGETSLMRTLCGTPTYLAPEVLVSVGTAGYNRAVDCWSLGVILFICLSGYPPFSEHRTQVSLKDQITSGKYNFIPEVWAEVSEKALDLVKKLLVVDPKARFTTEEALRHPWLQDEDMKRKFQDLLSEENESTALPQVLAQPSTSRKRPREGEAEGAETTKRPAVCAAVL
From the text: as §1

A further assay concerns the target T1, ERK8 (Homo sapiens, UniProt Q8TD08).
T1 sequence (Q8TD08 1-544): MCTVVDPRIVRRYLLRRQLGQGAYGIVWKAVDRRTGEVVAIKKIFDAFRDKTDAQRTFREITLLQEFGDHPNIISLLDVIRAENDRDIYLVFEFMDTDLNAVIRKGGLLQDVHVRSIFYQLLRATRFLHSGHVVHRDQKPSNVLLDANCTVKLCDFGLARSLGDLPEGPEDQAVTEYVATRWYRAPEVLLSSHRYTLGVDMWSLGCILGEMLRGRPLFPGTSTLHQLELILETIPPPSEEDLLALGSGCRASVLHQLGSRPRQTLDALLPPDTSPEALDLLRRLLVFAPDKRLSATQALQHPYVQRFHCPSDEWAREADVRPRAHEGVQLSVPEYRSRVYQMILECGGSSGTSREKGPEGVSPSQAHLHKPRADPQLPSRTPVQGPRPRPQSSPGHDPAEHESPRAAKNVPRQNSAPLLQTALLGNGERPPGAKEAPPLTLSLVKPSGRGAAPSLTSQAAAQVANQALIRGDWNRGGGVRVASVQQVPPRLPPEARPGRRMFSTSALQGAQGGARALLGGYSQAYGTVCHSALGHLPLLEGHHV
The following applies: read-out: % Activity Remaining.
From the text: as §1

For a further assay, the target named is MKK2 (Homo sapiens, UniProt P36507). The following applies: read-out: % Activity Remaining.
Sequence of MKK2 (P36507 whole entry): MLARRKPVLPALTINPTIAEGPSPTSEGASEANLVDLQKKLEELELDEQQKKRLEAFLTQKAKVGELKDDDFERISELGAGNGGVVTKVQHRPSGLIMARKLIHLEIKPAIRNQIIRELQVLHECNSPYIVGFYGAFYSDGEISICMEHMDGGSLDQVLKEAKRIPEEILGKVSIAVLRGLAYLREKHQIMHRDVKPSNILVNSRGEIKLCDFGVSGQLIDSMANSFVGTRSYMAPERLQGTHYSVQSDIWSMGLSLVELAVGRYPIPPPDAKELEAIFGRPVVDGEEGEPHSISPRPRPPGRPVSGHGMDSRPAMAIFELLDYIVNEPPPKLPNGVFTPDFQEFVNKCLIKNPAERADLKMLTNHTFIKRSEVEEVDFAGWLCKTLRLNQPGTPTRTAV
From the text: as §1

The target in the next assay is T2, PINK (Tribolium castaneum, UniProt D6WMX4).
T2 sequence (D6WMX4 1-570): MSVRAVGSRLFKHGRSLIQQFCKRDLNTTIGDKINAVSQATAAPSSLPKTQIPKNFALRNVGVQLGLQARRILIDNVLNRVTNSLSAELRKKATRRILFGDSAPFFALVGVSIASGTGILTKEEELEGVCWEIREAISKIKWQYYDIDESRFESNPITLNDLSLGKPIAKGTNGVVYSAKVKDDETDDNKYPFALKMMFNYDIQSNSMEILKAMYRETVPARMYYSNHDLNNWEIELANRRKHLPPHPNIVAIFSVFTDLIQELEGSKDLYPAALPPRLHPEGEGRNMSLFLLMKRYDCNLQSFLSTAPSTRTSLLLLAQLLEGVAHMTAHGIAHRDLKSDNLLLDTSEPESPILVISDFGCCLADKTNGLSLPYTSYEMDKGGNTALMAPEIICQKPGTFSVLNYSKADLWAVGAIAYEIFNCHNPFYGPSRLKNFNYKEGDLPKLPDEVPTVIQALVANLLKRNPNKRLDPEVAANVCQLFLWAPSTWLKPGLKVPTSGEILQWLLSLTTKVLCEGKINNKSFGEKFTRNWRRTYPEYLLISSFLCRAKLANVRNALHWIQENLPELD
From the text: as §1

Another assay concerns the target PKB alpha (Homo sapiens, UniProt P31749). To be noted: read-out: % Activity Remaining.
From the text: as §1

The target of a further assay is S6K1 (Homo sapiens, UniProt P23443). The following applies: read-out: % Activity Remaining.
Sequence of S6K1 (P23443 whole entry): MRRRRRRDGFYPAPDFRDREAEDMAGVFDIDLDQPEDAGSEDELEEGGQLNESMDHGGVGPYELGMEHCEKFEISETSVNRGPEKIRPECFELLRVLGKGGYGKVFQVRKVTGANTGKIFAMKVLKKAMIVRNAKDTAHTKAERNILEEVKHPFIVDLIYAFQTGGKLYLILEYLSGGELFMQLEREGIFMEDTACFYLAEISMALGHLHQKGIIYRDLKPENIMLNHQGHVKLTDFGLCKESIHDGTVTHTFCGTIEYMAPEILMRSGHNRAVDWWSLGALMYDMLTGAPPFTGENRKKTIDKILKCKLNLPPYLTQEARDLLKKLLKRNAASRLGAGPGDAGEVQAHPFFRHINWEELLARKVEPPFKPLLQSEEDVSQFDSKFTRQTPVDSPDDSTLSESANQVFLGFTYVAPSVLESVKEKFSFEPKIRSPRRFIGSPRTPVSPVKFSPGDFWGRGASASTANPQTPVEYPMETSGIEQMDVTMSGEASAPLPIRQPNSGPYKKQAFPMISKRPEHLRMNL
From the text: as §1

The target of the next assay is T3, TLK1 (Homo sapiens, UniProt Q9UKI8).
T3 sequence (Q9UKI8 1-766): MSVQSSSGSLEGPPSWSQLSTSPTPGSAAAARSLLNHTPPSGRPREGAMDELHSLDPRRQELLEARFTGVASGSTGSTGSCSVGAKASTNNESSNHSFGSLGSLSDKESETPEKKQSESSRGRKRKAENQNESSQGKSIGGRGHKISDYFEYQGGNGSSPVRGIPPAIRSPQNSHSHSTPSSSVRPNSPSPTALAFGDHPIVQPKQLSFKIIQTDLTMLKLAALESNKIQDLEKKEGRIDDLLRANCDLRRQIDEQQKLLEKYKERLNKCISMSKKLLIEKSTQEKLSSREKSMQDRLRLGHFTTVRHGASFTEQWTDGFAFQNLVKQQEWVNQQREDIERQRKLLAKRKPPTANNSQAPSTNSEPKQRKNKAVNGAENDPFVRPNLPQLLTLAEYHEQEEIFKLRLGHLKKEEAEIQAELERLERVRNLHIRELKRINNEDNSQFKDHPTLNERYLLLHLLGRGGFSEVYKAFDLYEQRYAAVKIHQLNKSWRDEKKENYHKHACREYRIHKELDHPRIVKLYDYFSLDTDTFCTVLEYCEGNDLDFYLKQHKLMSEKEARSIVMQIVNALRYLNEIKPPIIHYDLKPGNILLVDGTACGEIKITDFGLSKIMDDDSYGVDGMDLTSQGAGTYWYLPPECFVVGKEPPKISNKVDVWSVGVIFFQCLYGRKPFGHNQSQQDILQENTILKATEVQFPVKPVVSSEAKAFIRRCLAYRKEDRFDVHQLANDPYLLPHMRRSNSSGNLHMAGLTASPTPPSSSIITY
The following applies: read-out: % Activity Remaining.
From the text: as §1

Another assay deals with T4, ZAP70 (Homo sapiens, UniProt P43403).
T4 sequence (P43403 1-619): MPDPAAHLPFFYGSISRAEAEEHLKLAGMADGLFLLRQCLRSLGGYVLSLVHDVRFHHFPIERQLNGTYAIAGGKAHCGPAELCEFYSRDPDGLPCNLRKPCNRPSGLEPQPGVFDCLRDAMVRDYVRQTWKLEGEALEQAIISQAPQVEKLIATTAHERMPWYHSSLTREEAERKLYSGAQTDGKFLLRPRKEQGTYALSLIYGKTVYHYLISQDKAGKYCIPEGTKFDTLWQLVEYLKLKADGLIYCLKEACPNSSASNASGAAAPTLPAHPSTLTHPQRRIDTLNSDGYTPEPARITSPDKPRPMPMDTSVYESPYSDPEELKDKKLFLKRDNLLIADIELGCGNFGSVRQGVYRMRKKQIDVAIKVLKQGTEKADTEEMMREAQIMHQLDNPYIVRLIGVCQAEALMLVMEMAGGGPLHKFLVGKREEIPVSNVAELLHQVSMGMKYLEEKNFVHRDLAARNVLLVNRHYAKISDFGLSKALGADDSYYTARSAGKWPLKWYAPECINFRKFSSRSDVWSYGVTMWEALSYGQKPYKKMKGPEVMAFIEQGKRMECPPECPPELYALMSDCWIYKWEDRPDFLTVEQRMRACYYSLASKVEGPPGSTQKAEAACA
The following applies: read-out: % Activity Remaining.
From the text: as §1

Sequence of PKB alpha (P31749 whole entry): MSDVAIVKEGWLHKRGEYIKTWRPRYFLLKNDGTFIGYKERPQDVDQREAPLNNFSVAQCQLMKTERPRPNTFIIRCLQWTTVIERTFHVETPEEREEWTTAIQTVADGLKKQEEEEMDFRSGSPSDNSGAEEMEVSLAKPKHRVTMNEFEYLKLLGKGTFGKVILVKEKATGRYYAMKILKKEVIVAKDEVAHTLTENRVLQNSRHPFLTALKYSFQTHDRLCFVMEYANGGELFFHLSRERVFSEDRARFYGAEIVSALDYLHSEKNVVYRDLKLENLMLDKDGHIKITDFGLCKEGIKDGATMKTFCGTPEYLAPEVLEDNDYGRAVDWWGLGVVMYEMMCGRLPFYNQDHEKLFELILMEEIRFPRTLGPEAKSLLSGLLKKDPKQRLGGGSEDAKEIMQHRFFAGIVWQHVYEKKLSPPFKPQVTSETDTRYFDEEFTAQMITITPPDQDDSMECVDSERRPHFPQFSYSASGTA
Sequence of CDK9-Cyclin T1 (P50750 whole entry): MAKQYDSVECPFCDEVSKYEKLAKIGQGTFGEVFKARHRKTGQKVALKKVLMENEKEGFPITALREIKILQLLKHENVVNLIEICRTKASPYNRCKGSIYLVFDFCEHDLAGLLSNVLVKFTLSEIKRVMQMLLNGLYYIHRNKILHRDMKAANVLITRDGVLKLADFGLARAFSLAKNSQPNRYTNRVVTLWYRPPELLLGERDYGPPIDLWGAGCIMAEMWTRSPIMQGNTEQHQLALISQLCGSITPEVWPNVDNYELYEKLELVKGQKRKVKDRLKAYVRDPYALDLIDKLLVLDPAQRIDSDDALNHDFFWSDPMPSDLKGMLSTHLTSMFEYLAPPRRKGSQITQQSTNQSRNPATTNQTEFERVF
Sequence of CDK9-Cyclin T1 (O60563 whole entry partner): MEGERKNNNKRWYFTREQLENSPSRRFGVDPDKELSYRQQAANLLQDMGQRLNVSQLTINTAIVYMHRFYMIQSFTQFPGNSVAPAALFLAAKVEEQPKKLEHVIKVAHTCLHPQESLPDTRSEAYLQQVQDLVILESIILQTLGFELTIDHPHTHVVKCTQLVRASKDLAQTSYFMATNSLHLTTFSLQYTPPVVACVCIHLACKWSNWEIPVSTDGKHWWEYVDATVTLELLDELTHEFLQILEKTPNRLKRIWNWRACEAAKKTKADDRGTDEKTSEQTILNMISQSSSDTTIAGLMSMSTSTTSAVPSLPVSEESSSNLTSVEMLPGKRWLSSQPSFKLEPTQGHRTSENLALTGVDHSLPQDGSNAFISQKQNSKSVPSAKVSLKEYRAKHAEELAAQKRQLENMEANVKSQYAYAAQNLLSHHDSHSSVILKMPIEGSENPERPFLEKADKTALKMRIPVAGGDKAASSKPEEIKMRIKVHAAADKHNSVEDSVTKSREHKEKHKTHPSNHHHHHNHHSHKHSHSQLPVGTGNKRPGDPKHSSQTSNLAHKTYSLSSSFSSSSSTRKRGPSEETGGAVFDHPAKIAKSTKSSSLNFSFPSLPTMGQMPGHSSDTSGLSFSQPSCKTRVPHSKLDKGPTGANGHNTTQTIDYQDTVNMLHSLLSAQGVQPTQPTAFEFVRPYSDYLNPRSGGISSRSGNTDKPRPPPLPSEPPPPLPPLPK

Turning to `COc1ccc(Cl)c(S(=O)(=O)Nc2ccc(-c3nc(OC[C@H]4CNCCO4)c4c(C)n[nH]c4n3)cc2)c1` [290-R, reference compound], the remaining activity at 1 µM at CDK9-Cyclin T1 came out at 105%; on CHK2 it was 9%; at ERK8, 18%; on MKK2, 41%; at PINK, 99%; at PKB alpha it was 49%. Also, the remaining activity at 1 µM at S6K1 was 1%; at TLK1, 89%; on ZAP70 it was 98%.
Turning to `Cc1ccc(F)c(S(=O)(=O)Nc2ccc(-c3nc(OC[C@H]4CNCCO4)c4cn[nH]c4n3)cc2)c1` [308-R, reference compound], the remaining activity at 1 µM is 63% at CDK9-Cyclin T1; 24% at CHK2; 49% at ERK8; 80% at MKK2; 119% on PINK; 96% at PKB alpha. Also, the remaining activity at 1 µM on S6K1 was 1%; at TLK1 it was 108%; at ZAP70 it was 101%.
On to `Cc1ccc(F)c(S(=O)(=O)Nc2ccc(-c3nc(OC[C@H]4CN(CCCCCCOCCOCCOCC(=O)N[C@H](C(=O)N5C[C@H](O)C[C@H]5C(=O)NCc5ccc(-c6scnc6C)cc5)C(C)(C)C)CCO4)c4cn[nH]c4n3)cc2)c1` [SGK3-PROTAC1], for which the remaining activity at 1 µM on CDK9-Cyclin T1 (1 µM) is 103%; on CHK2 (1 µM), 85%; at ERK8 (1 µM) it was 94%; at MKK2 (1 µM), 114%; on PINK it was 108%; on PKB alpha (1 µM) it was 105%. Besides, the remaining activity at 1 µM at S6K1 (1 µM) is 19%; on TLK1 (1 µM), 102%; on ZAP70 (1 µM) it was 75%.
Regarding `Cc1ccc(F)c(S(=O)(=O)Nc2ccc(-c3nc(OC[C@H]4CN(CCCCCCOCCOCCOCC(=O)N[C@H](C(=O)N5C[C@@H](O)C[C@H]5C(=O)NCc5ccc(-c6scnc6C)cc5)C(C)(C)C)CCO4)c4cn[nH]c4n3)cc2)c1` [cisSGK3-PROTAC1], the remaining activity at 1 µM on CDK9-Cyclin T1 (1 µM) stood at 105%; on CHK2 (1 µM), 99%; on ERK8 (1 µM), 86%; on MKK2 (1 µM), 124%; at PINK it was 109%; on PKB alpha (1 µM), 117%. Also, the remaining activity at 1 µM at S6K1 (1 µM) was 20%; on TLK1 (1 µM), 109%; at ZAP70 (1 µM), 75%.
